Where two headings read alike, the source gives them in different places.

In assay [1] the target is T1, insect ecdysteroid receptor (EcR) (Spodoptera frugiperda, UniProt Q8MWR2).
T1 construct: To an Sf-9 cell suspension (400 μL; (2.0–3.0) × 10^6 cells/mL) in a disposable culture tube; endogenous in cells; host or cells: Sf-9 cells
T1 sequence (Q8MWR2 1-403): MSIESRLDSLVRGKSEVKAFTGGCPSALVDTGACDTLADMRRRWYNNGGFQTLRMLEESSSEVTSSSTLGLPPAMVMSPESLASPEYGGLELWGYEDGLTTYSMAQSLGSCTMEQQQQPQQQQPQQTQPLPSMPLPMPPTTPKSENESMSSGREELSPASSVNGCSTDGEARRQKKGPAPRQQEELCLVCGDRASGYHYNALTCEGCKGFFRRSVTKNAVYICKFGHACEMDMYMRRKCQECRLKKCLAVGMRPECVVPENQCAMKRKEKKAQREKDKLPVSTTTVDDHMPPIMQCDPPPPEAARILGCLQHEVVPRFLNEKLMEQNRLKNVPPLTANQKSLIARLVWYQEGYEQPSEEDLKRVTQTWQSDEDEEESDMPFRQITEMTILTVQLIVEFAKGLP
Kind of assay: EcR binding assay ([3H]PonA displacement in Sf-9 cells). To be noted: for IC50: inhibition of [3H]PonA binding; for inhibition at 25 µM: read-out: inh% at 25 μM; for EcR binding activity in words: [3H]PonA binding. Here is the method: Tritiated PonA ([^3H]PonA; 3.5 TBq/mmol) was custom synthesized by American Radiolabeled Chemicals, Inc. (St. Louis, MO, USA). A stock solution of [^3H]PonA (30 000 dpm/μL, ∼0.1 μM) was prepared in 70% aqueous EtOH. Cold PonA and 20E were obtained from Enzo Biochem Inc. (New York, NY, USA) and Sigma-Aldrich Co. (St. Louis, MO, USA), respectively. Tebufenozide was obtained from stock samples. All test compounds were dissolved in DMSO. An Sf-9 cell line was cultured in EX-CELL 420 medium (SAFC Biosciences, Inc., Lenexa, KS, USA) supplemented with 10% fetal bovine serum.
The binding assay was performed as described previously with some modifications.[43],[44] To an Sf-9 cell suspension (400 μL; (2.0–3.0) × 10^6 cells/mL) in a disposable culture tube (12 mm × 75 mm) was added a test compound solution (1 μL), followed by a [^3H]PonA solution (2 μL, 60 000 dpm). After incubation at 25 °C for 30 min, the cell suspension was diluted with water (3 mL) and filtered through a glass fiber filter GF/B (25 mm; Whatman plc, Maidstone, UK). The filter was washed with water (2 × 3 mL), dried, and transferred to a glass vial. To the vial were added 3 mL of Insta-Gel Plus (PerkinElmer Inc., Waltham, MA, USA), and the radioactivity was measured with an LSC-8000 counter (Aloka, Tokyo, Japan). DMSO and PonA (final concentration: 2.7 μM) were used to determine the total and nonspecific binding, respectively. The test compounds were first screened at 25 μM, and the compounds with an inhibition rate of ≥50% were subjected to concentration–response experiments. The 50% inhibition concentration for [^3H]PonA binding [IC50 (M)] was determined using probit analysis,[45] and the logarithm of its reciprocal, pIC50, was used as the index of the binding affinity.

For the next assay, the target named is T2, EcR (Spodoptera frugiperda, UniProt Q8MWR2).
T2 sequence (Q8MWR2 1-403): T1 sequence (Q8MWR2 1-403)
Briefly: Reporter gene assay (hsp27 ecdysone response element/firefly luciferase) in Sf-9 cells. It counts as cell-based, insect. To be noted: for agonistic activity in reporter gene assay at 0.1 μM / agonistic activity in reporter gene assay at 1 μM: Sf-9 cells, luciferase reporter; for agonist/antagonist classification: binding assay combined with reporter gene assay. Here is the method: The reporter gene assay was performed in Sf-9 cells according to a previously reported method.[46] Briefly, a reporter plasmid was constructed from pBmbA/hsp27/firefly luciferase (hsp27/Fluc), in which seven repeats of hsp27 ecdysone response element were inserted. This plasmid was a kind gift from Dr. Luc Swevers (Institute of Biosciences & Applications, National Center for Scientific Research “Demokritos”, Athens, Greece). The plasmid was amplified in Escherichia coli and purified using a QIAGEN plasmid midi kit (QIAGEN GmbH, Hilden, Germany). A cell suspension (approximately 2.0 × 10^6 cells/mL; 400 μL) was added to each well of a 24-well plate, and it was incubated for 1 h. Then, 200 μL of a mixture of plasmids and TransFast transfection reagent (Promega; Madison, WI, USA) was added to each well. After incubating for 24 h, 6 μL of a solution of test compound (1% v/v) was added and incubated. After 48 h, the medium in each well was removed with a pipet. Cells were lysed by adding 100 μL/well of Passive Lysis Buffer and incubating for 15 min at 25 °C. The lysate (20 μL) was transferred to a 96-well microplate for the luciferase assay. Chemical luminescence was measured using a 96-microplate GLOMAX luminometer (Promega), according to the manufacturer’s instructions.

Setting [2] is: pIC50 (M), ecdysteroid receptor binding affinity, Sf-9 cell suspension, 25 °C, 30 min, probit analysis.

With `CC(C)(O)CC[C@@H](O)[C@](C)(O)[C@H]1CC[C@@]2(O)C3=C/C(=N/O)[C@@H]4C[C@@H](O)[C@@H](O)C[C@]4(C)[C@H]3CC[C@]12C` [Compound 17, 20-hydroxyecdysone 6(Z)-oxime], the IC50 in assay [1] (setting [2]) was more than 2.51e-05 M. Besides, the inhibition at 25 µM in assay [1] is 4.53%.
For the compound `CC(C)CC[C@@H](O)[C@](C)(O)[C@H]1CC[C@@]2(O)C3=CC(=O)[C@@H]4C[C@@H](O)[C@@H](O)C[C@]4(C)[C@H]3[C@H](O)C[C@]12C` [Compound 14, ajugasterone C], the “agonistic activity in reporter gene assay at 0.1 μM” value (“agonistic activity … at 0.1 μM” below) on EcR is “agonists”. In addition, in assay [1] (setting [2]), the IC50 is 6.46e-07 M.
In the case of `CC(C)CC[C@@H](O)[C@](C)(O)[C@H]1CC[C@@]2(O)C3=CC(=O)[C@@H]4C[C@@H](O)[C@@H](O)C[C@]4(C)C3=CC[C@]12C` [Compound 12, dacryhainansterone], at EcR, the “agonistic activity … at 0.1 μM” value is recorded as “agonists”. Besides, the “EcR binding activity in words” value in assay [1] (Sf-9 cells) is “strong”. Further, in assay [1] (setting [2]), the IC50 is 2.29e-08 M.
In turn, `CC(C)CC[C@@H](O)[C@](C)(O)[C@H]1CC[C@@]2(O)C3=CC(=O)[C@@H]4C[C@@H](O)[C@@H](O)C[C@]4(C)[C@H]3CC[C@]12C` [PonA, ponasterone A, reference compound] gave an IC50 in assay [1] (setting [2]) of 8.91e-09 M.
Take `CC(C)(O)CC[C@@H](O)[C@](C)(O)[C@H]1CC=C2C3=C(CC[C@@]21C)[C@@]1(C)C[C@H](O)[C@H](O)CC1=C(O)C3=O` [Compound 11, calonysterone]: in assay [1] (setting [2]), the IC50 was more than 2.51e-05 M. For the same compound, in assay [1], the inhibition at 25 µM came to 0%.
In the case of `C/C(=N\O)[C@H]1CC[C@@]2(O)C3=CC(=O)[C@@H]4C[C@@H](O)[C@@H](O)C[C@]4(C)[C@H]3CC[C@]12C` [Compound 16, poststerone 20(E)-oxime], the IC50 in assay [1] (setting [2]) was more than 2.51e-05 M. The inhibition at 25 µM in assay [1] amounted to 4.3%.
Regarding `CC(C)(O)CC[C@@H](O)[C@](C)(O)[C@H]1CC[C@H]2C3=CC(=O)[C@H]4C[C@@H](O)[C@@H](O)C[C@]4(C)[C@H]3CC[C@]12C` [Compound 9, 5α-14-Deoxy-20-hydroxyecdysone], the “EcR binding activity in words” value in assay [1] (Sf-9 cells) is on record as “very weak activity”. Also, in assay [1] (setting [2]), the IC50 was more than 2.51e-05 M. Besides, in assay [1], the inhibition at 25 µM is 0.93%.
Take `CC(C)(O)CC[C@@H](O)[C@](C)(O)[C@H]1CC[C@@H]2C3=C(CC[C@@]21C)[C@@]1(C)C[C@H](O)[C@H](O)CC1=C(O)C3=O` [Compound 4, 14β-14,15-Dihydrocalonysterone]: in assay [1] (setting [2]), the IC50 is approximately 2.51e-05 M. Besides, the inhibition at 25 µM in assay [1] is 49.8%.
Consider `CC(C)(O)CC[C@@H](O)[C@](C)(O)[C@H]1CC[C@@]2(O)C3=CC(=O)[C@@H]4C[C@@H](O)[C@@H](O)C[C@]4(C)[C@@]3(O)CC[C@]12C` [Compound 20, 9α,20-dihydroxyecdysone], for which the IC50 in assay [1] (setting [2]) is more than 2.51e-05 M. In addition, the inhibition at 25 µM in assay [1] amounted to 45.7%.
On to `CC(C)(O)CC[C@@H](O)[C@](C)(O)[C@H]1CC[C@H]2C3=CC(=O)[C@@H]4C[C@@H](O)[C@@H](O)C[C@]4(C)C3=CC[C@]12C` [Compound 7, 14-Deoxy-25-hydroxydacryhainansterone], for which, on EcR, the “agonistic activity … at 0.1 μM” value is on record as “did not show agonistic activity” and the “agonistic activity in reporter gene assay at 1 μM” value (“agonistic activity … at 1 μM” below) is reported as “agonists”. For the same compound, in assay [1] (Sf-9 cells), the “EcR binding activity in words” value is listed as “moderate”. In assay [1] (setting [2]), this compound gave an IC50 of 4.79e-07 M.
Consider `CC(C)(O)CC[C@@H](O)[C@](C)(O)[C@H]1CC[C@@]2(O)C3=CC(=O)[C@@H]4C[C@@H](O)[C@@H](O)C[C@]4(C)[C@H]3CC[C@]12C` [20E, 20-hydroxyecdysone, reference compound], for which the IC50 in assay [1] (Sf-9 cell suspension, 25 °C, 30 min, probit analysis, read-out: pIC50 (M), ecdysteroid receptor binding affinity (converted)) was 1.66e-07 M.
Regarding `CC1(C)CC[C@H]([C@](C)(O)[C@H]2CC[C@@]3(O)C4=CC(=O)[C@@H]5C[C@@H](O)[C@@H](O)C[C@]5(C)[C@H]4CC[C@]23C)O1` [Compound 13, shidasterone], at EcR, the “agonistic activity … at 1 μM” value was “did not activate the reporter gene” and the agonist/antagonist classification result was “ecdysteroid antagonists”. The IC50 in assay [1] (setting [2]) was 2.51e-06 M.
Regarding `CC(C)(O)CC[C@@H](O)[C@](C)(O)[C@H]1CC[C@H]2C3=CC(=O)[C@@H]4C[C@@H](O)[C@@H](O)C[C@]4(C)[C@H]3CC[C@]12C` [Compound 8, 14-Deoxy-20-hydroxyecdysone], at EcR, the “agonistic activity … at 0.1 μM” value was “agonists”. Besides, in assay [1] (fold higher than 20E), the “EcR binding potency/affinity relative to 20E” value is 2.4 times. In addition, the IC50 in assay [1] (setting [2]) is 6.92e-08 M.
`CCC1(CC)O[C@H]2C[C@@]3(C)[C@@H](C[C@H]2O1)C(=O)C=C1[C@@H]3CC[C@]2(C)[C@@H]([C@@](C)(O)[C@H](O)CCC(C)(C)O)CC[C@@]12O` [Compound 19, 28,28-diethyl-2,3-methylidene-20-hydroxyecdysone]: on EcR, the “agonistic activity … at 1 μM” value is reported as “did not activate the reporter gene” and the agonist/antagonist classification entry is listed as “ecdysteroid antagonists”. For the same compound, in assay [1] (setting [2]), the IC50 is 3.02e-06 M.
As to `CC(C)CCC(=O)[C@](C)(O)[C@H]1CC[C@@]2(O)C3=CC(=O)[C@@H]4C[C@@H](O)[C@@H](O)C[C@]4(C)C3=CC[C@]12C` [Compound 6, 22-Oxodacryhainansterone], at EcR, the “agonistic activity … at 0.1 μM” value is reported as “did not show agonistic activity” and the “agonistic activity … at 1 μM” value is “agonists”. In assay [1] (IC50, EcR binding, Sf-9 cells), this compound yielded an IC50 of 3.8e-07 M. Moreover, in assay [1] (Sf-9 cells), the “EcR binding activity in words” value is recorded as “moderate”.
Compound `CC(C)(O)CC[C@@H](O)[C@](C)(O)[C@H]1CC[C@@H]2C3=CC(=O)[C@@H]4C[C@@H](O)[C@@H](O)C[C@]4(C)[C@H]3CC[C@@]21C` [Compound 10, 14β-14-Deoxy-20-hydroxyecdysone] returned an IC50 in assay [1] (setting [2]) of more than 2.51e-05 M. Further, the inhibition at 25 µM in assay [1] amounted to 18.2%.
`CC(C)(O)CC[C@@H](O)[C@](C)(O)[C@H]1CC[C@@]2(O)C3=C/C(=N\O)[C@@H]4C[C@@H](O)[C@@H](O)C[C@]4(C)[C@H]3CC[C@]12C` [Compound 18, 20-hydroxyecdysone 6(E)-oxime] displayed an IC50 in assay [1] (setting [2]) of approximately 2.51e-05 M. Moreover, the inhibition at 25 µM in assay [1] was 60.1%.
Take `CC(C)(O)CC[C@@H](O)[C@](C)(O)[C@H]1CC[C@@]2(O)C3=CC(=O)[C@H]4C[C@@H](O)[C@@H](O)C[C@]4(C)[C@@]3(O)CC[C@]12C` [Compound 21, 5α-9α,20-dihydroxyecdysone]: the “EcR binding activity in words” value in assay [1] (Sf-9 cells) is on record as “very weak activity”. For the same compound, in assay [1] (setting [2]), the IC50 was more than 2.51e-05 M. Further, the inhibition at 25 µM in assay [1] amounted to 27.1%.
On to `CC(C)(O)CC[C@@H](O)[C@](C)(O)[C@H]1CC[C@@]2(O)C3=CC(=O)[C@H]4C[C@@H](O)C[C@@H](O)[C@]4(C)[C@H]3CC[C@]12C` [Compound 15, 5α-2-deoxyintegristerone A], for which the “EcR binding activity in words” value in assay [1] (Sf-9 cells) is “very weak activity”. The IC50 in assay [1] (setting [2]) was more than 2.51e-05 M. The inhibition at 25 µM in assay [1] was found to be 2.42%.

For the origin of these results see article PMC8314276, “A Commercial Extract of Cyanotis arachnoidea Roots as a Source of Unusual Ecdysteroid Derivatives with Insect Hormone Receptor Binding Activity” (Journal of Natural Products, 2021).
